Reference: PMC10066365, “Nemacol is a small molecule inhibitor of C. elegans vesicular acetylcholine transporter with anthelmintic potential” (Nature Communications, 2023)
Several values for one entry are separate records, joined by “and”; a condition that tells them apart may be missing. Identical values can stand only once.

Assays:
C. elegans = C. elegans motor phenotype scoring on solid media (Punc/jerky-unc, coiled, paralyzed), wild-type young adults; format: in vivo, Caenorhabditis elegans; conditions: for atypical locomotion (number of animals) / coiled (number of animals) / no phene (number of animals) / paralyzed (number of animals) / any phene: mean % fraction of young adults exhibiting any phenotype (coiled, jerky-Unc or paralyzed): one hour; for atypical locomotion (number of animals) / coiled (number of animals) / no phene (number of animals) / paralyzed (number of animals): young adults, 20 animals per trial, single technical replicate; for any phene: mean % fraction of young adults exhibiting any phenotype (coiled, jerky-Unc or paralyzed): mean of three biological replicates; for EC50: Caenorhabditis elegans, any motor phenotype after 1 h on solid media, ± 95% CI, read-out: C. elegans - motor disruption EC50
[1] = test system: Dirofilaria immitis microfilariae; assay: Dirofilaria immitis microfilariae immobility assay (DiroImager, 72 h); conditions: Dirofilaria immitis microfilariae
Summary of the method: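 About 250 freshly purified microfilariae of the Missouri isolate per well in supplemented RPMI 1640, exposed to compound for 72 h. Motility scored by automated whole-plate optical imaging; medium with 1% DMSO as negative control.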

[2] = test system: Dirofilaria immitis L3/L4; assay: Dirofilaria immitis L3/L4 motility assay (DiroImager, 72 h); conditions: Dirofilaria immitis L4
Pristionchus pacificus = Pristionchus pacificus motor disruption dose-response on solid media, 1 h; conditions: for EC50: Pristionchus pacificus, 1 h, read-out: P. pacificus motor disruption EC50; for mean % any phene: any phenotype (coiled, jerky-Unc or paralyzed) at one hour; for mean % any phene / mean % any phene (coiled, jerky-Unc or paralyzed): mean of three biological replicates; for rep 1 atypical locomotion / rep 1 coiled / rep 1 no phene / rep 1 paralyzed / rep 2 atypical locomotion / rep 2 coiled / rep 2 no phene / rep 2 paralyzed / rep 3 atypical locomotion / rep 3 coiled / rep 3 no phene / rep 3 paralyzed: count of 20 animals per trial, one hour; for mean % any phene (coiled, jerky-Unc or paralyzed): Pristionchus pacificus young adults

FC(F)(F)c1cccc(N2CCN(CC3CCCCC3)CC2)c1 [Nemacol-49]
atypical locomotion (number of animals) (C. elegans; 3.75uM): 3 and 2 and 1
coiled (number of animals) (C. elegans; 3.75uM): 0
no phene (number of animals) (C. elegans; 3.75uM): 17 and 18 and 19
paralyzed (number of animals) (C. elegans; 3.75uM): 0
any phene: mean % fraction of young adults exhibiting any phenotype (coiled, jerky-Unc or paralyzed) (C. elegans; 3.75uM): 9.167%
atypical locomotion (number of animals) (C. elegans; 15uM): 12 and 13 and 9
coiled (number of animals) (C. elegans; 15uM): 3 and 1 and 2 and 0
no phene (number of animals) (C. elegans; 15uM): 5 and 7 and 10 and 8
paralyzed (number of animals) (C. elegans; 15uM): 0
any phene: mean % fraction of young adults exhibiting any phenotype (coiled, jerky-Unc or paralyzed) (C. elegans; 15uM): 65%
atypical locomotion (number of animals) (C. elegans; 60uM): 13 and 16 and 10 and 14 and 15
coiled (number of animals) (C. elegans; 60uM): 7 and 4 and 10 and 6 and 1 and 3
no phene (number of animals) (C. elegans; 60uM): 0 and 5 and 2
paralyzed (number of animals) (C. elegans; 60uM): 0
any phene: mean % fraction of young adults exhibiting any phenotype (coiled, jerky-Unc or paralyzed) (C. elegans; 60uM): 94.1667%
EC50 (C. elegans): 11.2 ± 1.6 µM
% effect (motility), DIROIM MF ([1]; 0.016 µM): 0%
% effect (motility), DIROIM MF ([1]; 0.08 µM): 0%
% effect (motility), DIROIM MF ([1]; 0.4 µM): 0%
% effect (motility), DIROIM MF ([1]; 2 µM): 0%
% effect (motility), DIROIM MF ([1]; 10 µM): 0%
% effect (motility), DIROIM L4 ([2]; 10 µM): 0%
% effect (motility), DIROIM L4 ([2]; 50 µM): 10%
EC50 (Pristionchus pacificus): > 60 µM
mean % any phene (Pristionchus pacificus; conc 3.75): 0%
rep 1 atypical locomotion (Pristionchus pacificus; conc 3.75): 0
rep 1 coiled (Pristionchus pacificus; conc 3.75): 0
rep 1 no phene (Pristionchus pacificus; conc 3.75): 20
rep 1 paralyzed (Pristionchus pacificus; conc 3.75): 0
rep 2 atypical locomotion (Pristionchus pacificus; conc 3.75): 0
rep 2 coiled (Pristionchus pacificus; conc 3.75): 0
rep 2 no phene (Pristionchus pacificus; conc 3.75): 20
rep 2 paralyzed (Pristionchus pacificus; conc 3.75): 0
rep 3 atypical locomotion (Pristionchus pacificus; conc 3.75): 0
rep 3 coiled (Pristionchus pacificus; conc 3.75): 0
rep 3 no phene (Pristionchus pacificus; conc 3.75): 20
rep 3 paralyzed (Pristionchus pacificus; conc 3.75): 0
mean % any phene (Pristionchus pacificus; conc 15): 0%
rep 1 atypical locomotion (Pristionchus pacificus; conc 15): 0
rep 1 coiled (Pristionchus pacificus; conc 15): 0
rep 1 no phene (Pristionchus pacificus; conc 15): 20
rep 1 paralyzed (Pristionchus pacificus; conc 15): 0
rep 2 atypical locomotion (Pristionchus pacificus; conc 15): 0
rep 2 coiled (Pristionchus pacificus; conc 15): 0
rep 2 no phene (Pristionchus pacificus; conc 15): 20
rep 2 paralyzed (Pristionchus pacificus; conc 15): 0
rep 3 atypical locomotion (Pristionchus pacificus; conc 15): 0
rep 3 coiled (Pristionchus pacificus; conc 15): 0
rep 3 no phene (Pristionchus pacificus; conc 15): 20
rep 3 paralyzed (Pristionchus pacificus; conc 15): 0
mean % any phene (Pristionchus pacificus; conc 60): 12.5%
rep 1 atypical locomotion (Pristionchus pacificus; conc 60): 2
rep 1 coiled (Pristionchus pacificus; conc 60): 0
rep 1 no phene (Pristionchus pacificus; conc 60): 18
rep 1 paralyzed (Pristionchus pacificus; conc 60): 0
rep 2 coiled (Pristionchus pacificus; conc 60): 0
rep 2 no phene (Pristionchus pacificus; conc 60): 17 and 19
rep 2 paralyzed (Pristionchus pacificus; conc 60): 0
rep 3 atypical locomotion (Pristionchus pacificus; conc 60): 4 and 3
rep 3 coiled (Pristionchus pacificus; conc 60): 0
rep 3 no phene (Pristionchus pacificus; conc 60): 16 and 17
rep 3 paralyzed (Pristionchus pacificus; conc 60): 0

Fc1ccc(N2CCN(C3CCCCCC3)CC2)cc1 [Nemacol-51]
atypical locomotion (number of animals) (C. elegans; 3.75uM): 7 and 4 and 2 and 14 and 17
coiled (number of animals) (C. elegans; 3.75uM): 0 and 4 and 2
no phene (number of animals) (C. elegans; 3.75uM): 13 and 16 and 18 and 2 and 1
paralyzed (number of animals) (C. elegans; 3.75uM): 0
atypical locomotion (number of animals) (C. elegans; 15uM): 13 and 14 and 15 and 6 and 7
coiled (number of animals) (C. elegans; 15uM): 1 and 3 and 5 and 2 and 8
no phene (number of animals) (C. elegans; 15uM): 6 and 2 and 3 and 0
paralyzed (number of animals) (C. elegans; 15uM): 0 and 1 and 6 and 8
any phene: mean % fraction of young adults exhibiting any phenotype (coiled, jerky-Unc or paralyzed) (C. elegans; 15uM): 89.1667%
atypical locomotion (number of animals) (C. elegans; 60uM): 3 and 1 and 4 and 0
coiled (number of animals) (C. elegans; 60uM): 14 and 17 and 11 and 15
no phene (number of animals) (C. elegans; 60uM): 0
paralyzed (number of animals) (C. elegans; 60uM): 3 and 2 and 5
EC50 (C. elegans): 4.2 ± 2.3 µM
% effect (motility), DIROIM MF ([1]; 0.016 µM): 0%
% effect (motility), DIROIM MF ([1]; 0.08 µM): 0%
% effect (motility), DIROIM MF ([1]; 0.4 µM): 0%
% effect (motility), DIROIM MF ([1]; 2 µM): 0%
% effect (motility), DIROIM MF ([1]; 10 µM): 0%
% effect (motility), DIROIM L4 ([2]; 10 µM): 0%
% effect (motility), DIROIM L4 ([2]; 50 µM): 10%
mean % any phene (coiled, jerky-Unc or paralyzed) (Pristionchus pacificus; conc 3.75, observed at one hour): 2.5%
mean % any phene (coiled, jerky-Unc or paralyzed) (Pristionchus pacificus; conc 15, observed at one hour): 60%
mean % any phene (coiled, jerky-Unc or paralyzed) (Pristionchus pacificus; conc 60, observed at one hour): 85%
EC50 (Pristionchus pacificus): 13.2 ± 3 µM
